The source of these data is US20260224582A1, “Heterobicyclic amides as inhibitors of CD38” (Cerevance, Inc., priority 2022, published 2026).

One assay addresses T1, Recombinant human CD38 (Homo sapiens, UniProt P28907).
T1 sequence (P28907 1-300): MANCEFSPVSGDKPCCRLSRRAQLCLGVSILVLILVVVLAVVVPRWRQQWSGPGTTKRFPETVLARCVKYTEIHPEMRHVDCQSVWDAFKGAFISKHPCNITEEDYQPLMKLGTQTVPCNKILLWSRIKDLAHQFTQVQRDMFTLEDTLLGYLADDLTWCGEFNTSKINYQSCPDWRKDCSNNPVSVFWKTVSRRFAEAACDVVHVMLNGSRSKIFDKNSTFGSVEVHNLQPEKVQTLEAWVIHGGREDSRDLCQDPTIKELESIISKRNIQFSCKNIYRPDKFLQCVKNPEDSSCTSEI
The experiment in a line: Human CD38 hydrolase assay (fluorescence-based, ε-NAD substrate). The format is biochemical. To be noted: recombinant human CD38 0.8 nM, 4 μM ε-NAD, 30 min preincubation at 25° C. The procedure: The ability of test compounds to inhibit human CD38 hydrolase activity was measured in a fluorescence-based assay using non-physiological NAD^+ substrate analogue 1,N^6-etheno NAD^+ (ε-NAD). Recombinant human CD38 (0.8 nM) was preincubated with test compounds in 384-well black microplates for 30 min at 25° C. in PBS (—Ca^2+/Mg^2+) containing 0.005% BSA (pH 7.4). CD38 hydrolase activity was initiated by addition of 4 μM ε-NAD, which yields the fluorescent product 1,N^6-etheno ADP-ribose. Formation of fluorescent product was followed using ClarioStar Plus (BMG) microplate reader by reading fluorescence (excitation λ=300 nm; emission λ=410 nm) at two time points, one immediately after substrate addition (t=0) and one at 10 min (t=10). Data was analysed by subtracting the values detected at t=0 from t=10 to correct for variation in baseline fluorescence. Fluorescence values were converted to percent inhibition using the average of high signal (CD38 and ε-NAD) and low signal (CD38 and ε-NAD in the presence of a tool CD38 inhibitor) control wells. IC50 values were determined from a 10-point, half log concentration response curve with a four-parameter logistic equation.

A further assay deals with T2, Recombinant mouse CD38 (Mus musculus, UniProt P56528).
T2 sequence (P56528 1-304): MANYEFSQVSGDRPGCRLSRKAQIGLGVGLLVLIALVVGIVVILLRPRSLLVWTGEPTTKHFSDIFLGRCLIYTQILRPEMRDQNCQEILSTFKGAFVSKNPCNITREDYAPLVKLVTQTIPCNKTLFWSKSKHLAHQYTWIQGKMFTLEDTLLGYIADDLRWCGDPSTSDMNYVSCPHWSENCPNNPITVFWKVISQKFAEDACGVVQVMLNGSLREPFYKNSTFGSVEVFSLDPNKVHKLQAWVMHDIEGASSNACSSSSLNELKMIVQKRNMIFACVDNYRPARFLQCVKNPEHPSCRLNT
The assay can be described thus: Mouse CD38 hydrolase assay (fluorescence-based, ε-NAD substrate). The assay is classed as biochemical. Particulars: recombinant mouse CD38 0.4 nM, 12 μM ε-NAD, 30 min preincubation at 25° C. The procedure: The ability of test compounds to inhibit mouse CD38 hydrolase activity was measured in a fluorescence-based assay using non-physiological NAD^+ substrate analogue 1,N^6-etheno NAD^+ (&-NAD). Recombinant mouse CD38 (0.4 nM) was preincubated with test compounds in 384-well black microplates for 30 min at 25° C. in PBS (—Ca^2+/Mg^2+) containing 0.005% BSA (pH 7.4). CD38 hydrolase activity was initiated by addition of 12 μM ε-NAD, which yields the fluorescent product 1,N^6-etheno ADP-ribose. Formation of fluorescent product was followed using ClarioStar Plus (BMG) microplate reader by reading fluorescence (excitation λ=300 nm; emission λ=410 nm) at two time points, one immediately after substrate addition (t=0) and one at 6 min (t=6).
Data was analysed by subtracting the values detected at t=0 from t=6 to correct for variation in baseline fluorescence. Fluorescence values were converted to percent inhibition using the average of high signal (CD38 and ε-NAD) and low signal (CD38 and ε-NAD in the presence of a tool CD38 inhibitor) control wells. IC50 values were determined from a 10-point, halflog concentration response curve with a four-parameter logistic equation.

A word on the IC50: it is the concentration needed to halve the response being measured. As for `O=C(N[C@H]1CC[C@@H](N2CCSCC2)CC1)c1cn2ncnc2c(-n2ccnc2)n1` [Example 55, 8-(1H-imidazol-1-yl)-N-((1s,4s)-4-thiomorpholinocyclohexyl)-[1,2,4]triazolo[1,5-a]pyrazine-6-carboxamide], the figures for the IC50 on Recombinant human CD38 and at Recombinant mouse CD38 were at most 1000 nM and at most 40 nM, respectively.

As for `O=C(N[C@H]1CC[C@H](N2CC(C(F)(F)F)C2)CC1)c1cn2ncnc2c(-n2ccnc2)n1` [Example 56, 8-(1H-imidazol-1-yl)-N-((1r,4r)-4-(3-(trifluoromethyl)azetidin-1-yl)cyclohexyl)-[1,2,4]triazolo[1,5-a]pyrazine-6-carboxamide], the results for the IC50 at Recombinant human CD38 and at Recombinant mouse CD38 were at most 100 nM and at most 40 nM, respectively.

As to `CC(F)(F)CN[C@H]1CC[C@H](NC(=O)c2cn3ncnc3c(-n3ccnc3)n2)CC1` [Example 57, N-((1r,4r)-4-((2,2-difluoropropyl)amino)cyclohexyl)-8-(1H-imidazol-1-yl)-[1,2,4]triazolo[1,5-a]pyrazine-6-carboxamide], the 50% inhibitory concentration (IC50) on Recombinant human CD38 was at most 1000 nM; on Recombinant mouse CD38, at most 40 nM.

Turning to `O=C(N[C@H]1CC[C@H](N2CC[C@@H](F)C2)CC1)c1nc(-n2ccnc2)nc2ncccc12` [Example 58, N-((1R,4r)-4-((R)-3-fluoropyrrolidin-1-yl)cyclohexyl)-2-(1H-imidazol-1-yl)pyrido[2,3-d]pyrimidine-4-carboxamide], the half-maximal inhibitory concentration (IC50) was at most 100 nM on Recombinant human CD38 and at most 40 nM at Recombinant mouse CD38.

`O=C(N[C@H]1CC[C@H](NCC(F)(F)F)CC1)c1nc(-n2ccnc2)cn2ncnc12` [Example 59, 6-(1H-imidazol-1-yl)-N-((1r,4r)-4-((2,2,2-trifluoroethyl)amino)cyclohexyl)-[1,2,4]triazolo[1,5-a]pyrazine-8-carboxamide]: the IC50 on Recombinant human CD38 and at Recombinant mouse CD38 was at most 40 nM each time.

Turning to “N-((1r,4r)-4-((2,2-difluoroethyl)amino)cyclohexyl)-2-(1H-imidazol-1-yl)pyrido[2,3-d]pyrimidine-4-carboxamide [Example 33]”, the IC50 on Recombinant human CD38 and at Recombinant mouse CD38 was at most 40 nM in each case.
